Reference: patent publication US9845330B2, “6-nitro-2,3-dihydroimidazo[2,1-b]oxazoles and a process for the preparation thereof” (priority 2013, dated 2017)
Values after ≈ are worked out from the molar mass of the structure shown. Read-outs that look alike come from different tables or passages of the source.

Tests used:
[1] = test system: M. tuberculosis H37Rv (ATCC 27294); experiment: MIC by broth dilution method, M. tuberculosis H37Rv; type: cell-based; settings: Mycobacterium tuberculosis
[2] = Cytotoxicity assay (MTT) in macrophage J774 cells; type: cell-based; settings: mouse, J774 macrophage cells; also called safety index
Procedure, shortened: (§1)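 J774 cells seeded at 3×10^4 cells/cm^2 in RPMI with FCS reduced to 5%, then exposed to compounds at 40 μg/ml for 24 hrs. MTT reduction read at 450 nm; percentage cytotoxicity calculated relative to untreated cells.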

[3] = test system: macrophage J774 cells line; experiment: Cytotoxicity assay (MTT) in macrophage J774 cells; type: cell-based; settings: J774 cells, 24 hrs, MTT
Procedure, shortened: as §1

[4] = In vivo pharmacokinetics, oral, mice; set-up: species or system Balb/c mice; Ka: unit not given here; settings: 5 mg/kg oral, plasma; for Tmax: read-out: Tmax
Experimental: Compounds were administered orally to mice (Balb/c mice) at a dose of 5 mg/kg as a suspension in 0.5% CMC and Tween 80. Samples were derived from plasma at different time points i.e. 0.16 h, 0.5 h, 1 h, 2 h, 4 h, 6 h, 8 h and 24 h, which were then analysed by LC-MS/MS to generate the required pharmacokinetic parameters.

M. tuberculosis H37Rv = experiment: Combination studies, checkerboard method; type: cell-based, Mycobacterium tuberculosis; settings: for FIC (MIC combination/MIC alone): FIC B
Experimental: The efficacy of compounds IA25 and IIA3 (conc range 4 μg/ml to 0.007 μg/ml) in combination with currently used anti-TB drugs such as rifampicin, isoniazid and ethambutol (each drug tested at conc range 4 μg/ml to […]), wherein the ratio of drugs was ranging between 0.1% to 50%, was determined in vitro using checkerboard method. The checkerboard procedure was performed based on the MIC values by the broth microdilution method. The checkerboard method was performed in 96 well U bottom microtitre plates. 100 microliters of 4× concentration of drug was added to first column of the plate. 50 microliters from first column was transferred to second column and was serially diluted in horizontal manner upto column 10 of the plate. Seven dilutions of 4× concentration of compound were prepared in eppendorfs and fifty microliters of each concentration was added vertically starting from eleventh column of row eight to row second of the plate. First row of the plate served as drug control. 100 microliters of 1:10 diluted of 1 Mc Farland inoculum was added to each well of the plate. Plates were then incubated at 37° C. for 14 days. MIC of drug alone and in presence of compound and vice versa was observed visually. […] The FIC index value for each concentration of two-drug combination was calculated and the minimum value was adopted.

SMILES	selectivity ratio at 24 h, 40 μg/ml [2]	Cytotoxicity [3] [µg/mL]	CLB [4] [mL/min/kg]	Ka [4]	Vdarea [4] [L/kg]	t1/2absorption [4] [h]	Cmax ([4]; Balb/c, mouse, po, 5 mg/kg) [nM]	AUC ([4]; Balb/c, mouse) [µM·h]	Tmax ([4]; Balb/c, mouse) [h]	other results
C[C@]1(COc2ccc(-n3cc(COc4ccc(OC(F)(F)F)cc4)nn3)cc2)Cn2cc([N+](=O)[O-])nc2O1 [IA25]	> 10	>40	0.12	1.71	0.36	0.41	1020	14	2	MIC ([1]; 504 h, broth dilution, 3 weeks, read-out: MIC M. tb H37Rv): 0.12 µg/mL (≈ 0.225 µM); Cmax [4]: 1020 nM; FIC (MIC combination/MIC alone) (M. tuberculosis H37Rv; compound in combination with Ethambutol): FIC B = 0.5; FIC (MIC combination/MIC alone) (M. tuberculosis H37Rv; compound in combination with INH): FIC B = 0.25; FIC (MIC combination/MIC alone) (M. tuberculosis H37Rv; compound in combination with Rifampicin): FIC B = 0.5; MIC alone (M. tuberculosis H37Rv; checkerboard, alone): 0.12 µg/mL; MIC with Ethambutol (M. tuberculosis H37Rv; checkerboard, in combination with Ethambutol): 0.06 µg/mL; MIC with INH (M. tuberculosis H37Rv; checkerboard, in combination with INH): 0.03 µg/mL; MIC with Rifampicin (M. tuberculosis H37Rv; checkerboard, in combination with Rifampicin): 0.06 µg/mL; FIC Index (FIC A + FIC B) (M. tuberculosis H37Rv; combination with Ethambutol): 0.75; FIC Index (FIC A + FIC B) (M. tuberculosis H37Rv; combination with INH): 0.5; Observations (M. tuberculosis H37Rv; combination with INH (isoniazid)): synergistic effect; FIC Index (FIC A + FIC B) (M. tuberculosis H37Rv; combination with Rifampicin): 0.75
C[C@]1(COc2ccc(-c3cc(COc4ccc(F)cc4)on3)cc2)Cn2cc([N+](=O)[O-])nc2O1 [IC14, (R)-2-{4-[5-(4-fluorophenoxymethyl)isoxazol-3-yl]phenoxymethyl}-2,3-dihydro-2-methyl-6-nitroimidazo[2,1-b]oxazole]	> 10	>40	3.37	1.056	1.54	0.656	353	1.55	2	MIC ([1]; 504 h, read-out: MIC M. tb H37Rv, broth dilution, 3 weeks): 0.06 µg/mL (≈ 0.129 µM); MIC ([1]; read-out: MIC value, text summary: sensitive H37Rv as well as MDR and XDR strains of M. tuberculosis): < 1 µg/mL
